pIC50, pKi: −log10 of the molar value. “And” between values parts separate entries of the source, which are not always exact repeats. Equal entries are not always repeated.
Columns and labels:
[1] = UV-Vis absorbance spectra; format: physicochemical; conditions: 25 μM in HBSS buffer with 1% DMSO; for λmax cis: cis-isomer; for λmax trans: trans-isomer
Procedure: (§1) Solubility in buffer was explored for all compounds using nephelometry ([Bevan and Lloyd, 2000]) and these studies indicate good solubility of all azobenzene photoswiches up to at least 100 μM (Figure S1). […] For all compounds, 360 nm induces a large change in absorbance spectrum compared with the non-illuminated (dark) compounds (Table 1, Figure 2A, and S1), indicating photoisomerization to the cis-isomer. The absorbance peak (λmax) of Opto-prop-1-3 ranged between 319 and 347 nm for the trans-isomers and between 423 and 429 for the cis-isomers (Table 1), as is typical for azobenzene compounds ([Hauwert et al., 2018]). […] The photochemical conversions were determined by continuous illumination of the Opto-prop compounds with near UV-light (360 ± 20 nm) as 10-mM solutions in DMSO. Based on LCMS analysis, it was observed that all compounds obtained a high level of conversion to the cis-isomer with a photostationary state (PSS) of >88 area % cis-isomer (i.e. PSScis; Table 1). Subsequent back-switching to PSStrans with 434 nm maintained 22–29 area % cis-isomer (Table 1). The thermal relaxation of the PSScis state of the photoswitchable ligands was monitored over time by measuring absorbance at 254 nm. Only minor thermal relaxation to the trans-isomer could be detected at 20°C (not shown). An estimate of the relaxation rate at 20 °C was determined using a method by Priimagi et al. ([Ahmed et al., 2017]), which was performed in Hanks’ balanced salt solution (HBSS) using increased temperatures to enhance the speed of thermal relaxation. The Opto-prop ligands are all very stable as cis-isomer after illumination, with thermal relaxation half-lives of >10 days at 20 °C (See Table 1 and Figure S1).
UV-Vis spectra were obtained using a Thermo-scientific Evolution 201 PC spectrophotometer. Illumination was executed using a Sutter instruments Lambda LS with a 300 Watt full-spectrum lamp connected to a Sutter instruments Lambda 10-3 optical filter changer equipped with 360 ± 20 nm, 400 ± 5 nm, 434 ± 9 nm and 460 ± 5 nm filters. The light intensity is 0.93 mW/mm^2 using the 360 ± 20 nm filter, 0.22 mW/mm^2 using the 400 ± 5 nm filter, 0.79 mW/mm^2 for the 434 ± 9 nm filter and 0.26 mW/mm^2 for the 460 ± 5 nm filter as measured using a Thorlabs PM16-401 power meter.
For the determination of the UV-Vis spectra shown in Figure 2A, compounds (25 μM in 1% DMSO/HBSS buffer) were illuminated in Hellma Suprasil quartz 114-QS cuvettes with either a 360, 400, 434 or 460 nm filter for the indicated time. For the determination of PSScis and PSStrans states by UV spectroscopy (Figures S1D–S1F), a solution of the compound in 1% DMSO/HBSS buffer (25 μM) in a vial was illuminated to PSS cis with 360 nm (typically 4–5 min) and subsequently to PSS trans with 434 nm (typically 2–5 min). UV spectra were recorded.

[2] = PSScis and PSStrans by LC analysis; format: physicochemical; conditions: for PSScis (% cis-isomer): 10 mM in DMSO after illumination with 360 nm; for PSScis (% cis-isomer) / PSStrans (% cis-isomer): LCMS area at isosbestic wavelength; for PSStrans (% cis-isomer): 10 mM in DMSO, 360 nm then 434 nm
Procedure: as §1
For the determination of PSScis and PSStrans values by LC analysis (Table 1), a solution of the compound in DMSO (10 mM) was illuminated to PSScis with 360 nm and subsequently to PSStrans with 434 nm. PSS aliquots were withdrawn, diluted with MeCN and subjected to LCMS analysis with the corresponding isosbestic points wavelength: 278, 263 and 308 nm for Opto-prop-1-3, respectively.

[3] = Cis-to-trans thermal relaxation, Arrhenius extrapolation; format: physicochemical; conditions: PSScis sample 25 μM in HBSS buffer with 1% DMSO; Arrhenius extrapolation to 20 °C
Procedure: as §1
Cis-to-trans thermal relaxations were performed in the dark at 25 μM of the PSS360 state of the Opto-prop-1, -2 or -3 in HBSS buffer with 1% DMSO at various temperatures (60°C, 70°C and 80°C). Absorbance was repeatedly measured at 320, 320 and 347 nm for Opto-prop-1, -2 or -3, respectively, with 60 s intervals.

β1-AR [4] = target: T1, β1-AR (Homo sapiens, UniProt P08588); assay: [3H]DHA radioligand displacement on membranes of HEK293T cells expressing β1-AR; conditions: for fold Ki trans vs PSScis at β1-AR: fold difference between Ki of trans and Ki at PSScis; for Active state at β1-AR: isomer state with higher affinity
T1 sequence (P08588 whole entry): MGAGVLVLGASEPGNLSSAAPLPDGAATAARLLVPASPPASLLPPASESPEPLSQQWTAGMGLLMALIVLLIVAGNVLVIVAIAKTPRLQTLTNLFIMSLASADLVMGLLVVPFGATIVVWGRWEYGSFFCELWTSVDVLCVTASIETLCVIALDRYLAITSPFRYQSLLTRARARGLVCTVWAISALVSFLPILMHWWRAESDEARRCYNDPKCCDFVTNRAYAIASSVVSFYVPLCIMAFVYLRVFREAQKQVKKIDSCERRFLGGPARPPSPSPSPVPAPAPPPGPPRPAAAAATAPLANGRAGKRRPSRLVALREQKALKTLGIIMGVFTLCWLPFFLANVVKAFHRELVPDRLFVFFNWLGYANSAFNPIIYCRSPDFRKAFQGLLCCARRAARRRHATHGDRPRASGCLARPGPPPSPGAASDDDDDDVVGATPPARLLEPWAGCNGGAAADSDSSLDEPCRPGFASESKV
Procedure: (§5) Membranes of HEK293T-cells transiently expressing the receptor of interest were co-incubated with the tritiated β1/β2-AR antagonist dihydroalprenolol ([^3H]DHA, Figure S2 depicts saturation binding experiments), together with increasing concentrations of the competing unlabeled ligand.
(§6) Two million HEK293T cells were seeded in a 10cm^2 dish and were transiently transfected the next day with 1 μg human β1-AR or the β2-AR plasmid DNA, 4 μg empty pcDEF3 plasmid DNA and 30 μg linear 25 kDa polyethyleneimine (PEI; Polysciences Warrington, USA) in a 150 mM NaCl solution. […] Two days after transfection, cells were resuspended and washed (3 times) with PBS and pelleted by centrifugation steps at 1500 g. After the final centrifugation step, cell pellets were reconstituted into ice-cold Tris-HCl buffer (15 mM, supplemented with 0.3 mM EDTA and 2 mM MgCl2 at pH7.4) and dounce-homogenised by plunging the pestle 10 times with 1,500 rpm (Tamson, the Netherlands). The homogenates were frozen and thawed twice using liquid nitrogen, after which the membranes were isolated using an ultra-centrifuge L70 at 40,000 g (Beckman Coulter, USA). Cell pellets were then washed and reconstituted in ice-cold 20 mM Tris-HCl buffer supplemented with 250 mM Sucrose at pH 7.4. Finally, the membrane samples where homogenized using a 23-gauge needle, snap-frozen with liquid nitrogen and stored until further experimentation at −80 °C. The protein content was determined using a BCA protein assay kit (Thermo Scientific, USA).
(§7) On the day of the experiment 0.25–0.5 μg membranes expressing either the β1-AR or the β2-AR, were co-incubated with [^3H]DHA (Perkin Elmer, USA) and increasing concentrations unlabeled ligand in HBSS buffer (Thermo Scientific, with Ca^2+ and Mg^2+) supplemented with 0.1% BSA for 1 h at 25 °C under gentile agitation. Either a 4 nM or 1 nM concentration of [^3H]DHA was used in combination with membranes expressing either the β1-AR or β2-AR, respectively. Binding reactions were terminated by filtration over a PEI coated GF/C filter (Perkin Elmer) using ice-cold 50 mM Tris-HCl buffer with 500 mM NaCl at pH 7.4. GF/C plates were dried at 52 °C and filter bound [^3H]DHA was quantified by adding 25 μL/well Microscint-O scintillation liquid and counting luminescence using the Wallac Microbeta counter, as described before.
(§8) IC50 values were determined by fitting the concentration-dependent displacement of [^3H]DHA by unlabeled ligands, with a three-parameter sigmoidal model in GraphPad Prism. […] Competition binding graphs represent the pooled data of ≥3 experiments, normalized to the fitted top and bottom of the reference sigmoidal displacement curve of unlabeled DHA.

β2-AR [5] = target: T2, β2-AR (Homo sapiens, UniProt P07550); assay: [3H]DHA radioligand displacement on membranes of HEK293T cells expressing β2-AR; conditions: for fold Ki trans vs PSScis at β2-AR: fold difference between Ki of trans and Ki at PSScis; for Active state at β2-AR: isomer state with higher affinity; for pKi: β2-AR; for selectivity in binding β2-AR over β1-AR: cis-isomer (PSScis)
Target sequence in this assay (P07550 whole entry): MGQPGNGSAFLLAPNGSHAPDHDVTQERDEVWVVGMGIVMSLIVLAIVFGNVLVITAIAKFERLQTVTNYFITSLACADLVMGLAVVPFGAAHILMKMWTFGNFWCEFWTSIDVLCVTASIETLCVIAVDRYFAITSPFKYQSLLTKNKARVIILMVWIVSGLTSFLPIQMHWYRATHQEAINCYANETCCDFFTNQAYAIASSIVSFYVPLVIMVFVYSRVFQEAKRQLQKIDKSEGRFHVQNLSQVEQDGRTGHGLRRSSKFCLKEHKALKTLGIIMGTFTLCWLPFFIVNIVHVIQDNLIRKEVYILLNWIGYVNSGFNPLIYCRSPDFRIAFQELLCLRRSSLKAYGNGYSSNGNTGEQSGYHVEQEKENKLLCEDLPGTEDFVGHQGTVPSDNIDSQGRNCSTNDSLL
Procedure: as §5, §6, §7, §8

β1-AR [6] = target: T1, β1-AR; assay: Saturation binding of [3H]dihydroalprenolol, β1-AR membranes; design: host or cells: HEK293T, transient; membranes; conditions: HEK293T membranes
Procedure: (§2) Figure S2. Saturation binding of [3H]dihydroalprenolol t o the β1 and β2 adrenergic rec eptors, related to Figure 3. Increasing concentrations [3H]dihydroalprenolol were incubated with membranes of HEK293T cells transiently expressing either the β1-AR (A) or β2-AR (B). Both the radioligand concentration and bound radioligand were quantified by scintillation counting. Data represent the po o led m ean ± SD of 4 experiments. Binding affinities (pKd) of [3H]dihydroalprenolol were determined by fitting the data in each individual experiment. […]
(§3) and a Bmax value of 33 ± 19 pmol/mg at membranes expressing the β2-AR.
(§4) (1 picture or pasted object on this page, not shown here)

β2-AR [7] = target: T2, β2-AR; assay: Saturation binding of [3H]dihydroalprenolol, β2-AR membranes; design: host or cells: HEK293T, transient; membranes; conditions: HEK293T membranes
Procedure: as §2, §3, §4
Target sequence in this assay (P07550 whole entry): as above

[8] = system: isolated adult rat cardiomyocytes; assay: Contractility (sarcomere shortening) of paced isolated cardiomyocytes; format: cell-based; conditions: paced at 2 Hz; for effect on isoprenaline-enhanced contractility: 1 μM with 15 nM isoprenaline
Procedure: To evaluate Opto-prop-2 in a relevant biological system with endogenous levels of the native receptor proteins, it was tested using isolated adult rat cardiomyocytes. Cardiomyocytes were paced at 2Hz, inducing contractions that were quantified by measuring the sarcomere length over time (Figure 6A). […] This enhanced contractility was attenuated by co-incubating with cis-Opto-prop-2 (magenta line) but not by trans-Opto-prop-2 (teal line) at 1 μM concentrations.
Intact adult cardiomyocytes were isolated from 3 adult wild-type Wistar rats weighing 200–250 g as described previously. ([Nollet et al., 2020]; [van Deel et al., 2017]) Briefly, rats were sedated and anesthesized by isoflurane inhalation. The heart was removed and perfused in a Langendorff setup with Liberase TM (Roche) digestive enzymes and the left ventricle was consequently cut into small pieces and resuspended in stopping buffer. This mixture was passed over a 300 μm nylon mesh filter, isolated cells in the filtrate were resuspended in buffer containing 1mM CaCl2. Cells were suspended in plating medium composed of Medium 199 (Lonza), 1% penicillin/streptomycin and 5% bovine serum and plated on a laminin coated dish (10 μg/mL, Sigma-Aldrich). The cells were incubated for 1 h at 37 °C in humidified air with 5% CO2 to let them attach to the coated dish. Afterwards, non-attached cells were removed by washing cells with pre-heated Tyrode solution (137 mM NaCl, 5.4 mM KCl, 3 mM sodium pyruvate, 5 mM HEPES, 0.57 mM MgCl2, 0.33 mM NaH2PO4, 1.0 mM CaCl2 and 5.6 mM glucose, pH 7.4 at 37 °C). Contractility measurements were performed at 37 °C using the Multi-Cell system (CytoCypher, the Netherlands). Cells were treated to vehicle (DMSO), 15 nM isoproterenol alone or in combination with 1 μM of propranolol or Opto-prop-2 (either with or without prior illumination). […]
Changes in sarcomere length were recorded with a high-speed camera and Ionoptix software (Ionoptix, Westwood MA, USA). The contractility profiles were analyzed with the automated, batch analysis software ‘Transient Analysis Tools’ (CytoCypher, Amsterdam, NL). […]

β2-AR [9] = target: T2, β2-AR; assay: Conformational β2-AR BRET sensor in HEK293A cells
Target sequence in this assay (P07550 1-369): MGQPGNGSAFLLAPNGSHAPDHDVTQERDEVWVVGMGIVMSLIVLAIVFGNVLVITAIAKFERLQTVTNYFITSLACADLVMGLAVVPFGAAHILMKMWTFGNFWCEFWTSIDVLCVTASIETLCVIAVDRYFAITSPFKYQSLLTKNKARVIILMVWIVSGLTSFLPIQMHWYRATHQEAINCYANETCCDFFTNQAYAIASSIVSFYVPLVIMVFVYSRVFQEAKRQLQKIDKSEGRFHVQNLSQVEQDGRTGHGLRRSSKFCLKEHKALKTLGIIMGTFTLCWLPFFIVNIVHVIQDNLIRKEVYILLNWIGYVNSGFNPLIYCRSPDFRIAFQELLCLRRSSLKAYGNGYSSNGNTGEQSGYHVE
Procedure: The next day, cells were washed with HBSS and incubated with a 1/1000 stock solution of furimazine. […] Wells pre-incubated with 0.1% DMSO/HBSS control were treated with vehicle control.
Raw BRET ratios were defined as acceptor emission/donor emission.
Antagonist pKB values were calculated using the agonist potency and concentration together with the antagonist IC50 values, using the Cheng-Prusoff equation.

[10] = pKi PSScis, β1-AR, illuminated to PSScis (360 nm) before experiment
[11] = pKi trans, β1-AR, without prior illumination (trans-isomer)
[12] = pKi PSScis, illuminated to PSScis (360 nm) before experiment
[13] = pKi trans, without prior illumination (trans-isomer)

Compound: CC(C)NCC(O)COc1ccccc1/N=N/c1ccccc1 (stereo not drawn) [Opto-prop-1]
- λmax cis [1]: 423 nm
- λmax trans [1]: 321 nm
- PSScis (% cis-isomer) [2]: 88.9 ± 1.0 % cis-isomer
- PSStrans (% cis-isomer) [2]: 28.8 ± 0.3 % cis-isomer
- t1/2 20°C (thermal relaxation of cis-isomer) [3]: >240 h
- pKi (β1-AR [4]; Ki at β1-AR, trans-isomer): > 7.89
- fold Ki trans vs PSScis at β1-AR (β1-AR [4]): 9 fold and 9.4 fold
- Active state at β1-AR (β1-AR [4]): trans
- pKi (β1-AR [4]; [10]): 7.10
- pKi (β1-AR [4]; [11]): 8.10
- selectivity β2-AR over β1-AR (β2-AR [5]; both isomers): ≥ 10 fold
- fold Ki trans vs PSScis at β2-AR (β2-AR [5]): 4 fold and 4.3 fold
- Active state at β2-AR (β2-AR [5]): trans
- pKi (β2-AR [5]; [12]): 8.50
- pKi (β2-AR [5]; [13]): 9.10

Compound: CC(C)NCC(O)COc1ccc(/N=N/c2ccccc2)cc1 (stereo not drawn) [Opto-prop-3]
- λmax cis [1]: 429 nm
- λmax trans [1]: 347 nm
- PSScis (% cis-isomer) [2]: 93.8 ± 0.6 % cis-isomer
- PSStrans (% cis-isomer) [2]: 21.5 ± 0.1 % cis-isomer
- trans-content at PSStrans ([2]; 434 nm): 78.5%
- t1/2 20°C (thermal relaxation of cis-isomer) [3]: >240 h
- pKi (β1-AR [4]; Ki at β1-AR, trans-isomer): > 7.89
- selectivity β1-AR over β2-AR (β1-AR [4]; both isomers): ≥ 10 fold
- fold Ki trans vs PSScis at β1-AR (β1-AR [4]): 18 fold
- Active state at β1-AR (β1-AR [4]): trans
- pKi (β1-AR [4]; [10]): 6.70
- pKi (β1-AR [4]; [11]): 7.90
- fold Ki trans vs PSScis at β2-AR (β2-AR [5]): 2.6 fold
- Active state at β2-AR (β2-AR [5]): cis
- pKi (β2-AR [5]; [12]): 5.40
- pKi (β2-AR [5]; [13]): 5.00

Compound: CCCc1ccccc1OCC(O)CNC(C)C (stereo not drawn) [[3H]dihydroalprenolol, dihydroalprenolol]
- Bmax, β1-AR membranes (β1-AR [6]): 56 ± 16 pmol/mg
- Bmax, β2-AR membranes (β2-AR [7]): 33 ± 19 pmol/mg

Compound: CC(C)NCC(O)COc1ccccc1/N=N\c1ccccc1 (stereo not drawn) [cis-Opto-prop-1]
- selectivity in binding β2-AR over β1-AR (β2-AR [5]): 21 fold

Compound: CC(C)NCC(O)COc1cccc(/N=N\c2ccccc2)c1 (stereo not drawn) [cis-Opto-prop-2]
- effect on isoprenaline-enhanced contractility [8]: attenuated
- increase in β2-AR affinity upon 360 nm illumination (β2-AR [5]; cis vs trans): ~3 log-units
- selectivity in binding β2-AR over β1-AR (β2-AR [5]): 78 fold

Compound: CC(C)NCC(O)c1ccc(O)c(O)c1 (stereo not drawn) [isoprenaline, reference compound]
- effect on sarcomere shortening ([8]; 15 nM): further increased the shortening of the sarcomeres

Compound: CC(C)NCC(O)COc1cccc(/N=N/c2ccccc2)c1 (stereo not drawn) [trans-Opto-prop-2]
- effect on isoprenaline-enhanced contractility [8]: not
- pIC50 (β2-AR [9]): 6.00
- fold Ki trans vs PSScis at β2-AR (β2-AR [5]): 587 fold

Compound: CC(C)NCC(O)COc1ccc(/N=N/c2ccccc2)cc1 (stereo not drawn) [trans-Opto-prop-3]
- selectivity in binding affinity β1-AR over β2-AR (β1-AR [4]; trans-isomer): 813 fold

From publication PMC9436767, “Optical control of the β2-adrenergic receptor with opto-prop-2: A cis-active azobenzene analog of propranolol” (iScience, 2022)
